Experiments:
[1] = system: Rattus norvegicus; assay: Toxicity in Zucker rat sub-chronic fa/fa prediabetic model assessed as body weight at 10 mg/kg, po qd for 29 days measured on day 29 post last dose (reference value: 533 +/- 10 g); type: organism-based; details: in vivo, 696 h
[2] = system: Rattus norvegicus; assay: Toxicity in Zucker rat sub-chronic fa/fa prediabetic model assessed as change in body weight at 10 mg/kg, po qd for 29 days measured on day 1 to 29 during compound dosing (reference value: 140 +/- 7 g); type: organism-based; details: in vivo, 696 h
[3] = system: Rattus norvegicus; assay: Toxicity in Zucker rat sub-chronic fa/fa prediabetic model assessed as food intake at 10 mg/kg, po qd for 29 days measured on day 1 to 29 during compound dosing (reference value: 969 +/- 18 g); type: organism-based; details: in vivo, 696 h
[4] = system: Rattus norvegicus; assay: Toxicity in Zucker rat sub-chronic fa/fa prediabetic model assessed as epididymal white adipose tissue weight at 10 mg/kg, po qd for 31 days measured on day 32 (reference value: 13.9 +/- 0.6 g); type: organism-based; details: in vivo, 744 h
[5] = system: Rattus norvegicus; assay: Toxicity in Zucker rat sub-chronic fa/fa prediabetic model assessed as brown adipose tissue weight at 10 mg/kg, po qd for 31 days measured on day 32 (reference value: 2.1 +/- 0.3 g); type: organism-based; details: in vivo, 744 h
[6] = system: Rattus norvegicus; assay: Toxicity in Zucker rat sub-chronic fa/fa prediabetic model assessed as liver weight at 10 mg/kg, po qd for 31 days measured on day 32 (reference value: 28 +/- 1.6 g); type: organism-based; details: in vivo, 744 h
[7] = system: Rattus norvegicus; assay: Toxicity in Zucker rat sub-chronic fa/fa prediabetic model assessed as heart weight at 10 mg/kg, po qd for 31 days measured on day 32 (reference value: 1.19 +/- 0.04 g); type: organism-based; details: in vivo, 744 h
[8] = system: Rattus norvegicus; assay: Toxicity in Zucker rat sub-chronic fa/fa prediabetic model assessed as triglyceride level per gram liver at 10 mg/kg, po qd for 31 days measured on day 32 (reference value: 163.4 +/- 8.3 mg); type: organism-based; details: in vivo, 744 h
[9] = system: Rattus norvegicus; assay: Toxicity in Zucker rat sub-chronic fa/fa prediabetic model assessed as insulin level per gram pancreas at 10 mg/kg, po qd for 31 days measured on day 32 (reference value: 55.2 +/- 5.5 ug); type: organism-based; details: in vivo, 744 h
[10] = system: Rattus norvegicus; assay: Toxicity in Zucker rat sub-chronic fa/fa prediabetic model assessed as serum triglyceride level at 10 mg/kg, po qd for 31 days measured on day 32 (reference value: 1382 +/- 268 mg/dl); type: organism-based; details: in vivo, 744 h
[11] = system: Rattus norvegicus; assay: Toxicity in Zucker rat sub-chronic fa/fa prediabetic model assessed as serum cholesterol level at 10 mg/kg, po qd for 31 days measured on day 32 (reference value: 295 +/- 91 mg/dl); type: organism-based; details: in vivo, 744 h
[12] = system: Rattus norvegicus; assay: Toxicity in Zucker rat sub-chronic fa/fa prediabetic model assessed as serum ALT level at 10 mg/kg, po qd for 31 days measured on day 32 (reference value: 151 +/- 23 U/L); type: organism-based; details: in vivo, 744 h
[13] = system: Rattus norvegicus; assay: Toxicity in Zucker rat sub-chronic fa/fa prediabetic model assessed as serum AST level at 10 mg/kg, po qd for 31 days measured on day 32 (reference value: 187 +/- 37 U/L); type: organism-based; details: in vivo, 744 h
[14] = system: Rattus norvegicus; assay: Toxicity in Zucker rat sub-chronic fa/fa prediabetic model assessed as serum BUN level at 10 mg/kg, po qd for 31 days measured on day 32 (reference value: 28.3 +/- […]); type: organism-based; details: in vivo, 744 h
[15] = system: Rattus norvegicus; assay: Toxicity in Zucker rat sub-chronic fa/fa prediabetic model assessed as serum creatinine level at 10 mg/kg, po qd for 31 days measured on day 32 (reference value: 0.71 +/- 0.07 mg/dl); type: organism-based; details: in vivo, 744 h
[16] = system: Rattus norvegicus; assay: Toxicity in […] chronic ob/ob model assessed as body weight at 10 mg/kg, po qd for 28 days measured on day 28 post last dose (reference value: 47.3 +/- 1.06 g); type: organism-based; details: in vivo, 672 h
[17] = system: Rattus norvegicus; assay: Toxicity in […] chronic ob/ob model assessed as change in body weight at 10 mg/kg, po qd for 28 days measured on day 1 to 28 during compound dosing (reference value: 9.9 +/- 1.27 g); type: organism-based; details: in vivo, 672 h
[18] = system: Rattus norvegicus; assay: Toxicity in […] chronic ob/ob model assessed as food intake at 10 mg/kg, po qd for 28 days measured on day 1 to 28 during compound dosing (reference value: 170.6 +/- 3 g); type: organism-based; details: in vivo, 672 h
[19] = system: Rattus norvegicus; assay: Toxicity in […] model assessed as liver weight at 10 mg/kg, po qd for 31 days measured on day 32 (reference value: 2.77 +/- 0.16 g); type: organism-based; details: in vivo, 744 h
[20] = system: Rattus norvegicus; assay: Toxicity in […] chronic ob/ob model assessed as epididymal white adipose tissue weight at 10 mg/kg, po qd for 31 days measured on day 32 (reference value: 3.92 +/- 0.14 g); type: organism-based; details: in vivo, 744 h
[21] = system: Rattus norvegicus; assay: Toxicity in […] chronic ob/ob model assessed as brown adipose tissue weight at 10 mg/kg, po qd for 31 days measured on day 32 (reference value: 0.59 +/- 0.05 g); type: organism-based; details: in vivo, 744 h
[22] = system: Rattus norvegicus; assay: Toxicity in […] chronic ob/ob model assessed as serum triglyceride level at 10 mg/kg, po qd for 31 days measured on day 32 (reference value: 329 +/- 36 mg/dl); type: organism-based; details: in vivo, 744 h
[23] = system: Rattus norvegicus; assay: Toxicity in […] model assessed as serum cholesterol level at 10 mg/kg, po qd for 31 days measured on day 32 (reference value: 195 +/- 5.5 mg/dl); type: organism-based; details: in vivo, 744 h
[24] = system: Rattus norvegicus; assay: Toxicity in […] model assessed as serum ALT level at 10 mg/kg, po qd for 31 days measured on day 32 (reference value: 127 +/- 9 U/L); type: organism-based; details: in vivo, 744 h
[25] = system: Rattus norvegicus; assay: Toxicity in […] model assessed as serum AST level at 10 mg/kg, po qd for 31 days measured on day 32 (reference value: 180 +/- 26 U/L); type: organism-based; details: in vivo, 744 h
[26] = system: Rattus norvegicus; assay: Toxicity in […] model assessed as serum BUN level at 10 mg/kg, po qd for 31 days measured on day 32 (reference value: 28.3 +/- […]); type: organism-based; details: in vivo, 744 h
[27] = system: Rattus norvegicus; assay: Toxicity in […] model assessed as serum creatinine level at 10 mg/kg, po qd for 31 days measured on day 32 (reference value: 0.55 +/- 0.018 mg/dl); type: organism-based; details: in vivo, 744 h
[28] = system: Rattus norvegicus; assay: Antidiabetic activity in […] chronic ob/ob model assessed as increase in plasma adiponectin level at 10 mg/kg, po qd for 31 days measured on day 32 by ELISA relative to control; type: functional

CN(CCOc1ccc(CC2SC(=O)NC2=O)cc1)c1ccccn1 (stereo not drawn) [ROSIGLITAZONE]
Activity [1]: 617 g | Activity [2]: 213 g | Activity [3]: 1248 g | Activity [4]: 22.7 g | Activity [5]: 7.6 g | Activity [6]: 20.9 g | Activity [7]: 1.37 g | Activity [8]: 102.5 mg | Activity [9]: 90.7 µg | Activity [10]: 195 mg/dL | Activity [11]: 141 mg/dL | Activity [12]: 136 U/L | Activity [13]: 147 U/L | Activity [14]: 27.2 mg/dL | Activity [15]: 0.54 mg/dL | Activity [16]: 50.5 g | Activity [17]: 13 g | Activity [18]: 157.3 g | Activity [19]: 3.93 g | Activity [20]: 3.32 g | Activity [21]: 1.26 g | Activity [22]: 77 mg/dL | Activity [23]: 184 mg/dL | Activity [24]: 366 U/L | Activity [25]: 364 U/L | Activity [26]: 33.1 mg/dL | Activity [27]: 0.41 mg/dL | fold change (FC) [28]: 2.6
